In general, EC50 refers to the concentration that produces a half-maximal response. For orientation: Emax means the size of the effect at its maximum, as opposed to the concentration needed.

The results in this text go back to ChEMBL document CHEMBL4350967, “The Trifluoromethyl Group as a Bioisosteric Replacement of the Aliphatic Nitro Group in CB1 Receptor Positive Allosteric Modulators” (J Med Chem, 2019).

Series [1] addresses T1, Cannabinoid receptor 1 (Homo sapiens, UniProt P21554). As to the kind of experiment: Positive allosteric modulation of human CB1 receptor expressed in CHOK1 cells assessed as increase in CP55940-induced beta-arrestin recruitment preincubated for 30 mins followed by CP55940 addition and measured after 90 to 180 mins by PathHunter assay. It counts as cell-based. Background: Recruitment of arrestin is a read-out of receptor activation apart from second messengers.

In series [2] the target is T1, Cannabinoid receptor 1. Nature of the series: Agonist activity at human CB1 receptor expressed in CHOK1 cells assessed as induction of beta-arrestin recruitment measured after 30 mins by PathHunter assay. It counts as cell-based.
The nature of series [3]: Half life in human liver microsomes at 3 uM in presence of NADPH by LC-MS/MS analysis. It counts as ADME, Microsome. A general note: Microsomes from liver hold many membrane-bound enzymes, among them those of drug oxidation.
A short description of series [4]: Half life in rat liver microsomes at 3 uM in presence of NADPH by LC-MS/MS analysis. It counts as ADME, Microsome.
The nature of series [5]: Half life in mouse liver microsomes at 3 uM in presence of NADPH by LC-MS/MS analysis. It counts as ADME, Microsome.
Series [6] has as its target T1, Cannabinoid receptor 1. Nature of the series: Agonist activity at human Gi/Go-coupled CB1 receptor expressed in CHOK1 cells assessed as inhibition of forskolin-stimulated cAMP production measured after 30 mins by Hit-hunter assay. In general terms: Cyclic AMP is a second messenger, typically raised through Gs and lowered through Gi signalling.
Series [7] deals with T1, Cannabinoid receptor 1. Nature of the series: Agonist activity at human Gi/Go-coupled CB1 receptor expressed in CHOK1 cells assessed as inhibition of forskolin-stimulated cAMP production measured after 30 mins by Hit-hunter assay relative to CP55940. It counts as cell-based. The settings on record: 0.5 h.
The target of series [8] is T1, Cannabinoid receptor 1.
For series [9], the target named is T1, Cannabinoid receptor 1. Nature of the series: Positive allosteric modulation of human CB1 receptor expressed in CHOK1 cells assessed as increase in CP55940-induced beta-arrestin recruitment at 500 nM preincubated for 30 mins followed by CP55940 addition and measured after 90 to 180 mins by PathHunter assay relative to CP55940. The class given is cell-based.

The target in series [10] is T1, Cannabinoid receptor 1. As to the kind of experiment: Positive allosteric modulation of human CB1 receptor expressed in CHOK1 cells assessed as increase in CP55940-induced beta-arrestin recruitment preincubated for 30 mins followed by CP55940 addition and measured after 90 to 180 mins by PathHunter assay relative to CP55940. It counts as cell-based.
Series [11] deals with T1, Cannabinoid receptor 1. Nature of the series: Positive allosteric modulation of human CB1 receptor expressed in CHOK1 cells assessed as increase in CP55940-induced beta-arrestin recruitment at 200 nM preincubated for 30 mins followed by CP55940 addition and measured after 90 to 180 mins by PathHunter assay relative to CP55940. It counts as cell-based.
Series [12] deals with T1, Cannabinoid receptor 1. As to the kind of experiment: Positive allosteric modulation of human CB1 receptor expressed in CHOK1 cells assessed as increase in CP55940-induced beta-arrestin recruitment at 1000 nM preincubated for 30 mins followed by CP55940 addition and measured after 90 to 180 mins by PathHunter assay relative to CP55940. It counts as cell-based.
The target of series [13] is T1, Cannabinoid receptor 1. As to the kind of experiment: Positive allosteric modulation of human CB1 receptor expressed in CHOK1 cells assessed as increase in CP55940-induced beta-arrestin recruitment at 1 uM preincubated for 30 mins followed by CP55940 addition and measured after 90 to 180 mins by PathHunter assay relative to CP55940. It counts as cell-based.
Series [14] addresses T1, Cannabinoid receptor 1. Nature of the series: Positive allosteric modulation of human CB1 receptor expressed in CHOK1 cells assessed as increase in CP55940-induced beta-arrestin recruitment at 300 nM preincubated for 30 mins followed by CP55940 addition and measured after 90 to 180 mins by PathHunter assay relative to CP55940. It counts as cell-based.
For series [15], the target named is T1, Cannabinoid receptor 1. As to the kind of experiment: Positive allosteric modulation of human Gi/Go-coupled CB1 receptor expressed in CHOK1 cells assessed as increase in CP55940-induced inhibition of forskolin-stimulated cAMP production preincubated for 30 mins followed by CP55940 addition and measured after 30 to 60 mins by Hit-hunter assay relative to CP55940. It counts as functional, cell-based.

For series [16], the target named is Cannabinoid receptor 1 (Mus musculus) (UniProt P47746). As to the kind of experiment: Positive allosteric modulation of CB1 receptor in mouse brain membranes assessed as increase in [3H]CP55940 binding at 1 uM measured after 60 mins relative to control. The class given is cell membranes.
Sequence of Cannabinoid receptor 1 (Mus musculus) (P47746 whole entry): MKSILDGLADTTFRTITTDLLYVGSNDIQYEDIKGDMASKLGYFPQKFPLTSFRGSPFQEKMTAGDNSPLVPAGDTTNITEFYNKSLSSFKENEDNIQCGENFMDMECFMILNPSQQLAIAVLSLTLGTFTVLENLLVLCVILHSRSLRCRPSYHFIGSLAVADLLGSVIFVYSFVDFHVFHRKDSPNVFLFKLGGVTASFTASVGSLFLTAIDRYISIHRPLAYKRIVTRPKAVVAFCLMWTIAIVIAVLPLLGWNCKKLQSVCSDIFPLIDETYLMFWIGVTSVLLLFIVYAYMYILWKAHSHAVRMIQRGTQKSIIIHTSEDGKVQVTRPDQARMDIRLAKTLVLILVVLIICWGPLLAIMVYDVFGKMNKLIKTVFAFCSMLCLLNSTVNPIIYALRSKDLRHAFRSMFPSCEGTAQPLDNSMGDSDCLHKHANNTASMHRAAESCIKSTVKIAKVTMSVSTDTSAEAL

A value given as a limit tells only on which side of the number the result lay.

T1 sequence (P21554 whole entry): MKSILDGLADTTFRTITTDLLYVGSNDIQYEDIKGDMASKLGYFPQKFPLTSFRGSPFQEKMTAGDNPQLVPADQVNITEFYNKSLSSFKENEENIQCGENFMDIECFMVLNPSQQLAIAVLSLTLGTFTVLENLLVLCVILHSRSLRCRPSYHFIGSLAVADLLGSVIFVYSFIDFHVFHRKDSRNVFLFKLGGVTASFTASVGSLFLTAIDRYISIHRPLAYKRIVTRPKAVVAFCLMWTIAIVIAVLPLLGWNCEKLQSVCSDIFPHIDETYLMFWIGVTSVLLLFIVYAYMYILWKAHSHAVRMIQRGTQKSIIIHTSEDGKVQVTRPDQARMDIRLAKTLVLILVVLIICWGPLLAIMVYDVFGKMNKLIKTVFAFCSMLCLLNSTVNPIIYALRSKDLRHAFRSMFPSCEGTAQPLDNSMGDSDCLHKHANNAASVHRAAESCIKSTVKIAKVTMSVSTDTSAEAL

With `N#Cc1ccc2c([C@@H](CC(F)(F)F)c3cccs3)c(-c3ccccc3)[nH]c2c1`, the EC50 worked out at 0.363 µM in series [1], 0.828 µM in series [2], 0.029 µM in series [6] and 0.017 µM in [8]. In addition, the t1/2 in series [3] was determined as 72.3 min; in series [4], 34.9 min; in series [5], 26.5 min. In addition, in series [7] (read-out: Emax), the Emax amounted to 84%.
In the case of `N#Cc1ccc2c([C@H](CC(F)(F)F)c3cccs3)c(-c3ccccc3)[nH]c2c1`, the EC50 in [1] was 0.342 µM; in series [2], 1.21 µM; in [6] it was 0.076 µM; in series [8] it was 0.04 µM. The Emax in series [7] (read-out: Emax) came out at 89%.
Take `FC(F)(F)CC(c1cccs1)c1c(C2CCCC2)[nH]c2cc(C(F)(F)F)ccc12` (racemic): the Activity in [9] is > 50%. In addition, the EC50 in series [1] was found to be 0.301 µM; in series [2], 0.755 µM. The Emax in [10] worked out at 162%. For the same compound, the t1/2 in series [3] is reported as 47.1 min; in series [4], 44.4 min.
For `CC(=O)c1ccc2c(C(CC(F)(F)F)c3cccs3)c(-c3ccccc3)[nH]c2c1` (racemic), the Activity in [11] was > 50%. Further, the EC50 in [1] turned out to be 0.158 µM; in series [2], 0.741 µM. In addition, the Emax in series [10] is 121%. Besides, the values for the t1/2 in series [3] and in [4] were 51.2 min and 12.2 min, respectively.
Take `Cc1ccc2c(C(c3cccs3)C(C#N)C#N)c(-c3ccccc3)[nH]c2c1` (racemic): in series [12], the Activity is > 50%. For the same compound, the results for the t1/2 in series [3] and in [4] were 31.2 min and 4.9 min, respectively.
On to `N#Cc1ccc2[nH]c(C3CCCCC3)c(C(C[N+](=O)[O-])c3cccs3)c2c1` (racemic), for which the Activity in [13] was < 50%. Besides, the t1/2 in series [3] is reported as 21.4 min; in series [4], 3.8 min.
Regarding `O=C(O)CC(c1ccccc1)c1c(-c2ccccc2)[nH]c2ccccc12` (racemic), the t1/2 in series [3] stood at 62.7 min.
In the case of `O=[N+]([O-])CC(c1cccs1)c1c(-c2ccccc2)[nH]c2cc(C(F)(F)F)ccc12` (racemic), the EC50 turned out to be 0.284 µM in series [1] and 0.974 µM in series [2]. The results for the t1/2 in series [3] and in series [4] were 30.7 min and 15.6 min, respectively.
On the same counts, the results for `N#CCC(c1ccccc1)c1c(-c2ccccc2)[nH]c2cc(Cl)ccc12` (racemic) are 1.11 µM, 2.35 µM, 43.2 min and 22.5 min.
Consider `N#CC(C#N)C(c1ccccc1)c1c(-c2ccccc2)[nH]c2cc(Cl)ccc12` (racemic), for which the Activity in series [13] was < 50%. Also, the t1/2 in series [3] came out at 29.6 min; in series [4], 13.5 min.
Take `Cc1ccc2c(C(C[N+](=O)[O-])c3cccs3)c(-c3ccc(Cl)cc3)[nH]c2c1` (racemic): in [13], the Activity is < 50%. For the same compound, the t1/2 in [3] was determined as 24.2 min; in [4] it was 9.8 min.
Take `O=[N+]([O-])CC(c1cccs1)c1c(-c2ccccc2)[nH]c2cc(Cl)ccc12` (racemic): the Activity in series [9] is > 50%. Also, the EC50 in series [1] is 0.462 µM; in [2], 1.53 µM. Besides, the t1/2 in [3] stood at 32.7 min; in [4] it was 13.8 min.
Turning to `OC(C(c1ccccc1)c1c(-c2ccccc2)[nH]c2ccccc12)C(F)(F)F` (racemic), the Activity in series [13] was in the range of 30 to 50%. Also, the t1/2 turned out to be 39.4 min in [3] and 18.2 min in series [4].
`FC(F)(F)CC(c1cccs1)c1c(-c2ccccc2)[nH]c2cc(C(F)(F)F)ccc12` (racemic): the Activity in series [9] is > 50%. In addition, the EC50 in series [1] turned out to be 0.322 µM; in series [2] it was 0.801 µM. Also, the Emax in series [10] was determined as 203%. Moreover, the t1/2 in series [3] was 49.7 min; in series [4], 36.7 min.
For `N#Cc1ccc2[nH]c(-c3ccccc3)c(C(C[N+](=O)[O-])c3cccs3)c2c1` (racemic), the Activity in [13] was < 50%. For the same compound, the t1/2 in [3] was 49.4 min; in series [4], 8.2 min.
In the case of `COC(=O)c1ccc2c(C(CC(F)(F)F)c3cccs3)c(-c3ccccc3)[nH]c2c1` (racemic), in [11], the Activity is > 50%. In addition, in [10], the Emax is 88%.
For the compound `Cc1ccc2[nH]c(-c3ccccc3)c(C(C[N+](=O)[O-])c3cccs3)c2c1` (racemic), the Activity in series [12] was > 50%.
For the compound `Cc1ccc2c(C(C(=O)C(F)(F)F)c3ccccc3)c(-c3ccccc3)[nH]c2c1` (racemic), the Activity was > 50% in [9] and 50 to 100% in series [14].
On to `Cc1ccc2c(C(CC#N)c3ccccc3)c(-c3ccccc3)[nH]c2c1` (racemic), for which the Activity in series [12] was > 50%.
Regarding `Cc1ccc2c(C(CC(F)(F)F)c3ccccc3)c(-c3ccccc3)[nH]c2c1` (racemic), the Activity in series [9] was > 50%; in series [14], 50 to 100%.
Take `Cc1ccc2c(C(CC(F)(F)F)c3ccco3)c(-c3ccccc3)[nH]c2c1` (racemic): the Activity in [12] was > 50%.
For `Cc1ccc2c(C(CC(F)(F)F)c3cccs3)c(-c3ccccc3)[nH]c2c1` (racemic), the Activity in [9] was > 50%.
For `Cc1ccc2c(C(CC3CC3)CC(F)(F)F)c(-c3ccccc3)[nH]c2c1` (racemic), in series [12], the Activity was > 50%.
Same read-out and setting: next, `Cc1ccc2c(C(C[N+](=O)[O-])c3cccs3)c(C3CC3)[nH]c2c1` (racemic): > 50%; `Cc1ccc2c(C(C[N+](=O)[O-])c3cccs3)c(C3CCCC3)[nH]c2c1` (racemic): > 50%.
As for `Cc1ccc2c(C(c3ccccc3)C(C#N)C#N)c(-c3ccccc3)[nH]c2c1` (racemic), the Activity in series [12] is > 50%.
Regarding `FC(F)(F)CC(c1ccccc1)c1c(-c2ccccc2)[nH]c2cc(C(F)(F)F)ccc12` (racemic), in series [11], the Activity is > 50%.
Consider `FC(F)(F)CC(c1ccccc1)c1c(-c2ccccc2)[nH]c2ccccc12` (racemic), for which the Activity in series [12] was > 50%; in series [13], 30 to 50%.
In the case of `FC(F)(F)CC(c1ccco1)c1c(-c2ccccc2)[nH]c2cc(Cl)ccc12` (racemic), the Activity in series [9] was > 50%.
As for `FC(F)(F)CC(c1cccs1)c1c(-c2ccccc2)[nH]c2cc(Cl)ccc12` (racemic), in [11], the Activity was > 50%.
In the case of `N#Cc1ccc2c(C(C[N+](=O)[O-])c3cccs3)c(-c3ccccc3)[nH]c2c1` (racemic), in [12], the Activity is > 50%.
For the compound `N#Cc1ccc2c(C(C[N+](=O)[O-])c3cccs3)c(-c3ccccc3)[nH]c2c1` (single isomer, unassigned; (+)) [listing 1 of 2 here], the EC50 in series [1] was 0.863 µM; in [2], > 10 µM; in series [6], 0.251 µM; in [8] it was 0.181 µM. In addition, the Emax in series [7] (read-out: Emax) turned out to be 96%.
With `COC(=O)c1ccc2c(C(CC(F)(F)F)c3cccs3)c(-c3ccccc3)[nH]c2c1` (single isomer, unassigned; (+)), the Activity in [11] is > 50%. Further, the Emax in [10] was determined as 156%.
With `N#Cc1ccc2c(C(C[N+](=O)[O-])c3cccs3)c(-c3ccccc3)[nH]c2c1` (single isomer, unassigned; (+)) [listing 2 of 2 here], the Activity in series [12] was > 50%; in [16], 99%. Moreover, the Emax was found to be 51% in series [10] and 102% in series [15].
With `N#Cc1ccc2c(C(C[N+](=O)[O-])c3cccs3)c(-c3ccccc3)[nH]c2c1` (single isomer, unassigned; (-)) [listing 1 of 2 here], the EC50 in series [1] was 0.664 µM; in [2], > 10 µM; in [6], 0.046 µM; in [8], 0.036 µM. The Emax in [7] is 97%.
In the case of `COC(=O)c1ccc2c(C(CC(F)(F)F)c3cccs3)c(-c3ccccc3)[nH]c2c1` (single isomer, unassigned; (-)), in series [11], the Activity is > 50%.
Regarding `N#Cc1ccc2c(C(C[N+](=O)[O-])c3cccs3)c(-c3ccccc3)[nH]c2c1` (single isomer, unassigned; (-)) [listing 2 of 2 here], the Activity in [12] is > 50%; in [16], 108%. Besides, the Emax in [10] turned out to be 117%; in [15] it was 99%.
